The target in the first assay is PRC2 complex (EZH2 Y641F/EED/SUZ12/RbAp48/AEBP2) (Homo sapiens (Human), UniProt Q15910, Y641F). Description: Activity of a compound to PRC2 complex (EZH2 Y641F), HTRF.
Sequence of PRC2 complex (EZH2 Y641F/EED/SUZ12/RbAp48/AEBP2) (Q15910 whole entry Y641F): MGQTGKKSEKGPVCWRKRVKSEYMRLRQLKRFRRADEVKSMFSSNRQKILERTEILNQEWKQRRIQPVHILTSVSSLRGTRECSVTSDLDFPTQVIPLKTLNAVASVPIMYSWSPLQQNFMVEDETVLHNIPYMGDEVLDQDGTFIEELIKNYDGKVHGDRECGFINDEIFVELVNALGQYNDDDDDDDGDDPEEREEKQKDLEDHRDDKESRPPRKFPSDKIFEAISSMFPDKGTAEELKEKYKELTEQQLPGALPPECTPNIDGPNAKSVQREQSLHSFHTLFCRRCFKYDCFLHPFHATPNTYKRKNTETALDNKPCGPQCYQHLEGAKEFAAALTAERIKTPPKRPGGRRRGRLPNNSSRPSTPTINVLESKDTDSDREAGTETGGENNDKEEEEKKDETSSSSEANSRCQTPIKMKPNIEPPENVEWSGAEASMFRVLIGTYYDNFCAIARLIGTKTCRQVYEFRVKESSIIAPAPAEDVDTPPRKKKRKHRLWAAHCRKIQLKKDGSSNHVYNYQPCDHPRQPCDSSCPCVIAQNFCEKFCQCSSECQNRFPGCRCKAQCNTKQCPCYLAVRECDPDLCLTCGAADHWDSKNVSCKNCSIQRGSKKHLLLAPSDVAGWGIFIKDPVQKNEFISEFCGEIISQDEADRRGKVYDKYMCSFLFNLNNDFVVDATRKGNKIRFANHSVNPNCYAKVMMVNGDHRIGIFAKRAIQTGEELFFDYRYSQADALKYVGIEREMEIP
Sequence of PRC2 complex (EZH2 Y641F/EED/SUZ12/RbAp48/AEBP2) (O75530 whole entry partner): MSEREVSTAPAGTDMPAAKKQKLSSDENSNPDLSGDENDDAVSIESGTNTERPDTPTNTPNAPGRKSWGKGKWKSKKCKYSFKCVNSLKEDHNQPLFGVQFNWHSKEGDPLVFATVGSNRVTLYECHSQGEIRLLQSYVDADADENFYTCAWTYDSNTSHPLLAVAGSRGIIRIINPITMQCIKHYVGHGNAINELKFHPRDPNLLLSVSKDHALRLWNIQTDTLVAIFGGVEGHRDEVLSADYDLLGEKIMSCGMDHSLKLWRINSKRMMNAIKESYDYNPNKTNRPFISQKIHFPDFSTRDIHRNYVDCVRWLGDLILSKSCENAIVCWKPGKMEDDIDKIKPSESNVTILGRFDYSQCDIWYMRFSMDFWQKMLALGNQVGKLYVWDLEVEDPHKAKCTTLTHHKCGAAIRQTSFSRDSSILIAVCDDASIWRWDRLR
Sequence of PRC2 complex (EZH2 Y641F/EED/SUZ12/RbAp48/AEBP2) (Q15022 whole entry partner): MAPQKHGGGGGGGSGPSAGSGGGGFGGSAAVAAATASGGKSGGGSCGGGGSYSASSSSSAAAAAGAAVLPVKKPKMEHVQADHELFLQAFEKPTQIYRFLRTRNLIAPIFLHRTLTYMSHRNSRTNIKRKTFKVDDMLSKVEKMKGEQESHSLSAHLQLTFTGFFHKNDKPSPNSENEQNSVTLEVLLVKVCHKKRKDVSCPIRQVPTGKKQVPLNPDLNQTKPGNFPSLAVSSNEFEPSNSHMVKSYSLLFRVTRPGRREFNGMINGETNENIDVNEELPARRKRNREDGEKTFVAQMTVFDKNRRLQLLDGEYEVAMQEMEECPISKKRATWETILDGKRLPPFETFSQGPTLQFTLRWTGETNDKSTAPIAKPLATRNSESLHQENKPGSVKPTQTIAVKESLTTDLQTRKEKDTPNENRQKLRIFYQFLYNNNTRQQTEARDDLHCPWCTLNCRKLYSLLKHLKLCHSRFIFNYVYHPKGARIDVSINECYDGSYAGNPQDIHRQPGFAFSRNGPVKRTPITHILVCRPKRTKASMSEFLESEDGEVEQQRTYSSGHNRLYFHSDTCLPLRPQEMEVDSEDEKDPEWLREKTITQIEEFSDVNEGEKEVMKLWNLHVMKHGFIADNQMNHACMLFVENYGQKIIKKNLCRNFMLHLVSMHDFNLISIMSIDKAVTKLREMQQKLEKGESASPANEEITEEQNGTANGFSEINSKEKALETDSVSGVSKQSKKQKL
Sequence of PRC2 complex (EZH2 Y641F/EED/SUZ12/RbAp48/AEBP2) (Q09028 whole entry partner): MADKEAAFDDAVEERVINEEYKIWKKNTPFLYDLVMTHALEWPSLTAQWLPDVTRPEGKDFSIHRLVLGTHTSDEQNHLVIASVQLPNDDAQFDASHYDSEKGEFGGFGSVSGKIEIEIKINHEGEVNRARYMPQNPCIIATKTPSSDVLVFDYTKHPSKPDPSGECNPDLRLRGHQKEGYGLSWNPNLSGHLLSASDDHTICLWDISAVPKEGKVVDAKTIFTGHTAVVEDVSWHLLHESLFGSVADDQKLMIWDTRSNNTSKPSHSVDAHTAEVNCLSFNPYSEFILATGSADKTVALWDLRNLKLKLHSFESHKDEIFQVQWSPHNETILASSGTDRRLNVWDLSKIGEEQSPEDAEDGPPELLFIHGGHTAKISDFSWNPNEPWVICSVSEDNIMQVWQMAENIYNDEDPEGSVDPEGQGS
Sequence of PRC2 complex (EZH2 Y641F/EED/SUZ12/RbAp48/AEBP2) (Q6ZN18 whole entry partner): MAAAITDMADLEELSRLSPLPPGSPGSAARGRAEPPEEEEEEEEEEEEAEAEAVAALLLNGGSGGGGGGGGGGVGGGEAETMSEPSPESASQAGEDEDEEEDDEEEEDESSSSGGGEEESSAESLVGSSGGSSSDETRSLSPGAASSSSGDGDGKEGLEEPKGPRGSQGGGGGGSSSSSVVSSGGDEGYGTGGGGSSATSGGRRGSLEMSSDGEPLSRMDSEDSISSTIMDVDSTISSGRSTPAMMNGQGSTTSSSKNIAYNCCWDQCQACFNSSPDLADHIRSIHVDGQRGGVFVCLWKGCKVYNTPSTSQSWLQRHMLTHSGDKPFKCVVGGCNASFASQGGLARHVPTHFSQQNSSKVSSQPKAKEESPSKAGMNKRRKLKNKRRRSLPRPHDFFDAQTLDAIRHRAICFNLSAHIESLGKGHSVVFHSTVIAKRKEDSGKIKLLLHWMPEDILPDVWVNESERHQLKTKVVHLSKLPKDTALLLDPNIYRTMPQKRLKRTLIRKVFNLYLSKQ
Conditions: not given
In general terms: TR-FRET usually uses a lanthanide donor and a delayed reading to cut background.
One may read the IC50 as the concentration that inhibits the measured activity by half. `COc1ccc(-c2ccn3c(C(C)N4CCOCC4)c(C)c(C(=O)NCc4c(C)cc(C)[nH]c4=O)cc23)cc1` (stereo not shown) [Example 121, N-((4,6-dimethyl-2-oxo-1,2-dihydropyridin-3-yl)methyl)-6-methyl-5-(1-morpholinylethyl)-1-(4-methoxyphenyl)indolizine-7-carboxamide]: the concentration for half-maximal inhibition (IC50) fell in the range of 100 to 1000 nM.

On to `Cc1cc(C)c(CNC(=O)c2cc3c(-c4ccccc4)ccn3c(C(C)N3CCC(N(C)C)CC3)c2C)c(=O)[nH]1` (stereo not shown) [Example 127, N-((4,6-dimethyl-2-oxo-1,2-dihydropyridin-3-yl)methyl)-6-methyl-5-(4-dimethylaminopiperidinylethyl)-1-phenylindolizine-7-carboxamide], for which the concentration for half-maximal inhibition (IC50) is under 100 nM.

`COc1cc(C)[nH]c(=O)c1CNC(=O)c1cc2c(-c3ccnn3C)ccn2c(C(C)N2CCOCC2)c1C` (stereo not shown) [Example 132, N-((4-methoxy-6-methyl-2-oxo-1,2-dihydropyridin-3-yl)methyl)-6-methyl-1-(1-methyl-1H-pyrazol-5-yl)-5-(1-morpholinylethyl)indolizine-7-carboxamide] displayed an IC50 of under 100 nM.

Molecule `COc1cc(C)[nH]c(=O)c1CNC(=O)c1cc2cc(-c3cncn3C)cn2c(C(C)N2CCN(CC(F)(F)F)CC2)c1C` (stereo not shown) [Example 137, N-((4-Methoxy-6-methyl-2-oxo-1,2-dihydropyridin-3-yl)methyl)-6-methyl-2-(1-methyl-1H-imidazol-5-yl)-5-(1-(4-(2,2,2-trifluoroethyl)piperazin-1-yl)ethyl)indolizine-7-carboxamide] yielded an IC50 of under 100 nM.

Consider `Cc1cc(C)c(CNC(=O)c2cc3cc(-c4cncs4)cn3c(C(C)N3CCC(N(C)C)CC3)c2C)c(=O)[nH]1` (stereo not shown) [Example 139], for which the 50% inhibitory concentration (IC50) is under 100 nM.

Molecule `COC1CCN(C(C)c2c(C)c(C(=O)NCc3c(C)cc(C)[nH]c3=O)cc3cc(Br)cn23)CC1` (stereo not shown) [Example 143, 2-Bromo-N-((4,6-dimethyl-2-oxo-1,2-dihydropyridin-3-yl)methyl)-6-methyl-5-(1-(4-methoxypiperidin-1-yl)ethyl)indolizine-7-carboxamide] gave a 50% inhibitory concentration (IC50) of 100 to 1000 nM.

The same assay, now with this note: read-out: IC50 (EZH2_Y641F); EZH2 Y641F PRC2 complex, HTRF; class symbols.
Turning to `COc1cccc(-c2ccn3c(C(C)N4CCOCC4)c(C)c(C(=O)NCc4c(C)cc(C)[nH]c4=O)cc23)c1` (stereo not shown) [Example 120, N-((4,6-dimethyl-2-oxo-1,2-dihydropyridin-3-yl)methyl)-6-methyl-5-(1-morpholinylethyl)-1-(3-methoxyphenyl)indolizine-7-amide], the IC50 was under 100 nM.

Take `Cc1cc(C)c(CNC(=O)c2cc3cc(Br)cn3c(C(C)N3CCC(F)(F)CC3)c2C)c(=O)[nH]1` (stereo not shown) [Example 122]: the IC50 lay in the range of 100 to 1000 nM.

Regarding `Cc1cc(C)c(CNC(=O)c2cc3cc(Br)cn3c(C(C)N3CCC(F)(F)CC3)c2C)c(=O)[nH]1` (stereo not shown) [Example 123, 2-bromo-5-(1-(4,4-difluoropiperidin-1-yl)ethyl)-N-((4,6-dimethyl-2-oxo-1,2-dihydropyridin-3-yl)methyl)-6-methylindolizine-7-carboxamide], the IC50 was 1000 to 10000 nM.

For `COc1ccc(F)c(-c2cc3cc(C(=O)NCc4c(C)cc(C)[nH]c4=O)c(C)c(C(C)N4CCOCC4)n3c2)c1` (stereo not shown) [Example 124, N-((4,6-dimethyl-2-oxo-1,2-dihydropyridin-3-yl)methyl)-2-(2-fluoro-5-methoxyphenyl)-6-methyl-5-(1-morpholinoethyl)indolizine-7-carboxamide], the 50% inhibitory concentration (IC50) fell in the range of 100 to 1000 nM.

As to `COC(=O)c1cc2cc(C(=O)NCc3c(C)cc(C)[nH]c3=O)c(C)c(C(C)N3CCOCC3)n2c1` (stereo not shown) [Example 125, methyl 7-(((4,6-dimethyl-2-oxo-1,2-dihydropyridin-3-yl)methyl)carbamoyl)-6-methyl-5-(1-morpholinylethyl)indolizine-2-carboxylate], the 50% inhibitory concentration (IC50) was in the range of 100 to 1000 nM.

As for `Cc1cc(C)c(CNC(=O)c2cc3cc(C(=O)N4CCOCC4)cn3c(C(C)N3CCOCC3)c2C)c(=O)[nH]1` (stereo not shown) [Example 126, N-((4,6-dimethyl-2-oxo-1,2-dihydropyridin-3-yl)methyl)-6-methyl-2-(morpholin-4-carbonyl)-5-(1-morpholinoethyl)indolizine-7-carboxamide], the IC50 is under 100 nM.

`COc1cc(C)[nH]c(=O)c1CNC(=O)c1cc2c(-c3ccccc3)ccn2c(C(C)N2CCC(N(C)C)CC2)c1C` (stereo not shown) [Example 129, N-((4,6-dimethyl-2-oxo-1,2-dihydropyridin-3-yl)methyl)-5-(1-(4-(dimethylamine)piperidine-1-yl)ethyl)-6-methyl-1-(1-methyl-1H-pyrazol-5-yl)indolizine-7-carboxamide]: the half-inhibitory concentration (IC50) was under 100 nM.

With `COc1cc(C)[nH]c(=O)c1CNC(=O)c1cc2cc(Cl)cn2c(C(C)N2CCC(N(C)C)CC2)c1C` (stereo not shown) [Example 130, 2-chloro-5-(1-(4-(dimethylamino)piperidin-1-yl)ethyl)-N-((4-methoxy-6-methyl-2-oxo-1,2-di hydropyridin-3-yl)methyl)-6-methylindolizine-7-carboxamide], the IC50 is under 100 nM.

As to `COc1cc(C)[nH]c(=O)c1CNC(=O)c1cc2c(-c3ccccc3)ccn2c(C(C)N2CCOCC2)c1C` (stereo not shown) [Example 131, N-((4-methoxy-6-methyl-2-oxo-1,2-dihydropyridin-3-yl)methyl)-6-methyl-5-(1-morpholinylethyl)-1-phenylindolizine-7-carboxamide], the concentration for half-maximal inhibition (IC50) is under 100 nM.

In the case of `Cc1cc(C)c(CNC(=O)c2cc3cc(-c4cncn4C)cn3c(C(C)N3CCC(N(C)C)CC3)c2C)c(=O)[nH]1` (stereo not shown) [Example 134, N-((4,6-dimethyl-2-oxo-1,2-dihydropyridin-3-yl)methyl)-5-(1-(4-(dimethylamino)piperidin-1-yl)ethyl)-6-methyl-2-(1-methyl-1H-imidazol-5-yl)indolizine-7-carboxamide], the IC50 was under 100 nM.

For the molecule `COc1cc(C)[nH]c(=O)c1CNC(=O)c1cc2cc(-c3cncn3C)cn2c(C(C)N2CCC(N(C)C)CC2)c1C` (stereo not shown) [Example 135, 5-(1-(4-(dimethylamino)piperidin-1-yl)ethyl)-N-((4-methoxy-6-methyl-2-oxo-1,2-dihydropyridin-3-yl)methyl)-6-methyl-2-(1-methyl-1H-imidazol-5-yl)indolizine-7-carboxamide], the concentration for half-maximal inhibition (IC50) was under 100 nM.

Regarding `Cc1cc(C)c(CNC(=O)c2cc3cc(-c4cncn4C)cn3c(C(C)N3CCN(CC(F)(F)F)CC3)c2C)c(=O)[nH]1` (stereo not shown) [Example 136, N-((4,6-dimethyl-2-oxo-1,2-dihydropyridin-3-yl)methyl)-6-methyl-2-(1-methyl-1H-imidazol-5-yl)-5-(1-(4-(2,2,2-trifluoroethyl)piperazin-1-yl)ethyl)indolizine-7-carboxamide], the IC50 was under 100 nM.

On to `Cc1cc(C)c(CNC(=O)c2cc3cc(-c4cncs4)cn3c(C(C)N3CCC(N(C)C)CC3)c2C)c(=O)[nH]1` (stereo not shown) [Example 138], for which the IC50 is under 100 nM.

With `Cc1cc(C)c(CNC(=O)c2cc3cc(-c4cncs4)cn3c(C(C)N3CCN(CC(F)(F)F)CC3)c2C)c(=O)[nH]1` (stereo not shown) [Example 140], the IC50 lay within 100 to 1000 nM.

On to `Cc1cc(C)c(CNC(=O)c2cc3cc(-c4cncs4)cn3c(C(C)N3CCN(CC(F)(F)F)CC3)c2C)c(=O)[nH]1` (stereo not shown) [Example 141, N-((4,6-dimethyl-2-oxo-1,2-dihydropyridin-3-yl)methyl)-6-methyl-2-(thiazole-5-yl)-5-(1-(4-(2,2,2-trifluoroethyl)piperazin-1-yl)ethyl)indolizine-7-carboxamide], for which the half-maximal inhibitory concentration (IC50) lay within 100 to 1000 nM.

On to `COc1cc(C)[nH]c(=O)c1CNC(=O)c1cc2cc(-c3cncs3)cn2c(C(C)N2CCN(CC(F)(F)F)CC2)c1C` (stereo not shown) [Example 142, N-((4-methoxy-6-methyl-2-oxo-1,2-dihydropyridin-3-yl)methyl)-6-methyl-2-(thiazole-5-yl)-5-(1-(4-(2,2,2-trifluoroethyl)piperazin-1-yl)ethyl)indolizine-7-carboxamide], for which the IC50 is under 100 nM.

Take `Cc1cc(C)c(CNC(=O)c2cc3cc(Br)cn3c(C(C)N3CCC(N4CCCC4)CC3)c2C)c(=O)[nH]1` (stereo not shown) [Example 144, 2-bromo-N-((4,6-dimethyl-2-oxo-1,2-dihydropyridin-3-yl)methyl)-5-(1-(4-hydroxypiperidin-1-yl)ethyl)-6-indolizine-7-carboxamide]: the concentration for half-maximal inhibition (IC50) lay within 100 to 1000 nM.

On to `Cc1cc(C)c(CNC(=O)c2cc3cc(Br)cn3c(C(C)N3CCC(N4CCCC4)CC3)c2C)c(=O)[nH]1` (stereo not shown) [Example 145, 2-bromo-N-((4,6-dimethyl-2-oxo-1,2-dihydropyridin-3-yl)methyl)-6-methyl-5-(1-(4-(pyrrolidin-1-yl)piperidin-1-yl)ethyl)indolizine-7-carboxamide], for which the IC50 was in the range of 100 to 1000 nM.

On to `Cc1cc(C)c(CNC(=O)c2cc3cc(Br)cn3c(C(C)N3CCC(C#N)CC3)c2C)c(=O)[nH]1` (stereo not shown) [Example 146, 2-bromo-5-(1-(4-cyanopiperidin-1-yl)ethyl)-N-((4,6-dimethyl-2-oxo-1,2-dihydropyridin-3-yl)methyl)-6-methylindolizine-7-carboxamide], for which the half-inhibitory concentration (IC50) lay in the range of 100 to 1000 nM.

Consider “(S)-1-Chloro-N-((4,6-dimethyl-2-oxo-1,2-dihydropyridin-3-yl)methyl)-6-methyl-5-(1-morphinolinylethyl)pyridazin-7-carboxamide or (R)-1-chloro-N-((4,6-dimethyl-2-oxo-1,2-dihydro)pyridin-3-yl)methyl)-6-methyl-5-(1-morphinolinylethyl)pyridazin-7-carboxamide [Compound 29]”, for which the IC50 was in the range of 100 to 1000 nM.

As for “(S)-1-Chloro-N-((4,6-dimethyl-2-oxo-1,2-dihydropyridin-3-yl)methyl)-6-methyl-5-(1-morphinolinylethyl)pyridazin-7-carboxamide or (R)-1-chloro-N-((4,6-dimethyl-2-oxo-1,2-dihydro)pyridin-3-yl)methyl)-6-methyl-5-(1-morphinolinylethyl)pyridazin-7-carboxamide [Example 28]”, the concentration for half-maximal inhibition (IC50) was under 100 nM.

For the molecule “N-((4,6-dimethyl-2-oxo-1,2-dihydropyridin-3-yl)methyl)-2-(3-((dimethylamino)methyl)phen yl))-6-methyl-5-(1-morpholineethyl)indolizine-7-amide [Example 74]”, the IC50 is under 100 nM.

For the origin of these results see patent publication US10968215B2 (SHANGHAI HAIHE PHARMACEUTICAL CO., LTD., priority 2016, dated 2021).
